Laboratory results taken from BindingDB's records for doi:10.1016/j.ejmech.2023.115229 (Sichuan University, 2023).

Biological target: Ribosomal protein S6 kinase alpha-2 (Homo sapiens, UniProt Q15349)
Test: Inhibition of RSK3 (unknown origin)

Chain of Ribosomal protein S6 kinase alpha-2 (Q15349 whole entry): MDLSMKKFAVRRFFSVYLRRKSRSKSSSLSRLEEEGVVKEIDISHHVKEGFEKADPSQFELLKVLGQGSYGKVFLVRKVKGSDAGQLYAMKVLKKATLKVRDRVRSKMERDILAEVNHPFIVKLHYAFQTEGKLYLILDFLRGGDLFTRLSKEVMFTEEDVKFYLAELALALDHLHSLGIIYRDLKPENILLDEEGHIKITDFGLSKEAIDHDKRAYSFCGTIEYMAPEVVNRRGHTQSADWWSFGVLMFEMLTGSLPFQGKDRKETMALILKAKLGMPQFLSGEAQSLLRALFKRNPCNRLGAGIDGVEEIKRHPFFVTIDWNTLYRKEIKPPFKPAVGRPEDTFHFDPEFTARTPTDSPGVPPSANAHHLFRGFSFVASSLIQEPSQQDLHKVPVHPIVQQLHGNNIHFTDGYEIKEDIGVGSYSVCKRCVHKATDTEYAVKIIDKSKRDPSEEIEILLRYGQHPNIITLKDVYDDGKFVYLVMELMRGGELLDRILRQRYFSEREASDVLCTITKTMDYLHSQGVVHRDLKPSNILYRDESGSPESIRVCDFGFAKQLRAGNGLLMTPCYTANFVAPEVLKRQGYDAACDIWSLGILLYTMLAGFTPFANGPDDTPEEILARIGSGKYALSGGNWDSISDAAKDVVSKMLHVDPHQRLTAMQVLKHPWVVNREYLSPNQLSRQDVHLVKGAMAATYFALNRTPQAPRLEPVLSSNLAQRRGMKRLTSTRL

O=c1c(O)c(-c2ccc(O)c(O)c2)oc2cc(O)ccc12 [2-(3,4-dihydroxyphenyl)-3,7-dihydroxy-chromen-4-one]
IC50: 891 nM
